Test results reported in patent US5648455A, “Antibiotic WAP-8294A, method for preparing the same and antibacterial composition” (Wakamoto Pharmaceutical Co., Ltd., priority 1994, dated 1997).
Values after ≈ are worked out from the molar mass of the structure shown. Numbered stars: 1 amine (or outer) side, 2 acyl side, 3 side chain; on linkers, the order of the positions; unused ones are H or OH. Bridge positions count the residues as written; N and C are the ends. Square brackets hold non-standard residues; d marks the D form. Peptide text beside a SMILES is read from it. ξ: configuration not given here. ξAsn(3ξ-OH) = NC(=O)C(O)C(N)C(=O)O; X2 = CC(C)CCCC(CC(=O)[*:1])O[*:2]; NMeF = CN[CH](Cc1ccccc1)C(=O)O; X1 = CCCCCC(CC(=O)[*:1])O[*:2]; NMeV = CN[CH](C(=O)O)C(C)C; Orn = NCCC[CH](N)C(=O)O

How the values were obtained:
[1] = tested on: Gram-positive bacteria including MRSA (methicillin-resistant Staphylococcus aureus); assay: Antibacterial activity, summary of Table 4; type: cell-based; details: for increase of antibacterial activity when 10% bovine serum is added to the culture medium: relative to culture medium without serum; for antibacterial activity against Gram-positive bacteria including MRSA: sensitive bouillon medium, Table 4
Description: (§1) The determination of the minimum inhibitory concentration (MIC) was carried out by broth dilution method which made use of a sensitive bouillon medium (available from Eiken Chemical Co., Ltd.).

[2] = tested on: Pseudomonas aeruginosa (ATCC 9027); assay: MIC, broth dilution, sensitive bouillon medium; type: cell-based
Description: as §1

[3] = tested on: Bacillus subtilis (ATCC 6633); assay: MIC, broth dilution, sensitive bouillon medium; type: cell-based
Description: as §1

[4] = tested on: Escherichia coli (ATCC 25922); assay: MIC, broth dilution, sensitive bouillon medium; type: cell-based
Description: as §1

[5] = tested on: Staphylococcus aureus (ATCC 25923); assay: MIC, broth dilution, sensitive bouillon medium; type: cell-based
Description: as §1

[6] = tested on: Staphylococcus epidermidis (ATCC 12228); assay: MIC, broth dilution, sensitive bouillon medium; type: cell-based
Description: as §1

[7] = tested on: Staphylococcus aureus 371 R (MRSA clinically isolated strain); assay: MIC, broth dilution, sensitive bouillon medium; type: cell-based
Description: as §1

[8] = tested on: Aspergillus fumigatus (IAM 2004); assay: MIC, broth dilution, sensitive bouillon medium; type: cell-based
Description: as §1

[9] = tested on: Candida albicans (TIMM 0239); assay: MIC, broth dilution, sensitive bouillon medium; type: cell-based
Description: as §1

[10] = tested on: Staphylococcus aureus No. 1 (MRSA clinically isolated strain); assay: MIC, broth dilution, sensitive bouillon medium; type: cell-based
Description: as §1

[11] = tested on: Staphylococcus aureus No. 11 (MRSA clinically isolated strain); assay: MIC, broth dilution, sensitive bouillon medium; type: cell-based
Description: as §1

[12] = tested on: Streptococcus pyogenes (ATCC 19615); assay: MIC, broth dilution, sensitive bouillon medium; type: cell-based
Description: as §1

[13] = Solubility; type: physicochemical; details: solvents
[14] = tested on: Staphylococcus aureus No. 1 (a clinically isolated strain of MRSA); assay: Protective effect against experimental systemic MRSA infection in mice; type: in vivo, ICR-MCH mice; details: dose 10 mg/kg, once subcutaneously one hour after infection
Description: (§2) The experiments were carried out by intra-peritoneally administering 0.5 mg/0.5 ml/mouse of cyclophosphamide to ICR-MCH mice [4-week-old male mice (available from Nippon CLEA Co., Ltd.), 8 animals per group] 3 days before the infection and then infecting the animals through intra-peritoneal administration of 0.5 ml each of a liquid containing 2×10^6 /ml of Staphylococcus aureus No. 1 strain supplemented with 5% mucin. One hour after the infection, 10 mg/kg of Vancomycin HCl (available from Shionogi & Co., Ltd.) and 0.2 ml/mouse of the antibiotic WAP-8294A (containing 10 mg/kg, 5 mg/kg, 2.5 mg/kg, 1.0 mg/kg, 0.5 mg/kg, 0.25 mg/kg, 0.1 mg/kg or 0.05 mg/kg of the antibiotic) was once subcutaneously injected to mice. To control groups, there was subcutaneously administered 0.2 ml each of physiological saline.

[15] = tested on: Staphylococcus aureus JCM8702 (a clinically isolated strain of MRSA); assay: as above; type: in vivo, ICR-MCH mice; details: dose 10 mg/kg, once subcutaneously one hour after infection
Description: as §2, with “2×10^4” for “2×10^6”, “JCM8702” for “No. 1”, “WAP-8294AX” for “WAP-8294A”, “10” for “10 mg/kg, 5”, “1.0” for “1.0 mg/kg, 0.5 mg/kg, 0.25 mg/kg, 0.1”, “0.5” for “0.05”

[16] = Addition of Serum: 10% (bovine serum)

Row | MIC [2, 16] [µg/mL] | MIC ([2]; Addition of Serum: None) [µg/mL] | MIC [3, 16] [µg/mL] | MIC ([3]; Addition of Serum: None) [µg/mL] | MIC [4, 16] [µg/mL] | MIC ([4]; Addition of Serum: None) [µg/mL] | MIC [5, 16] [µg/mL] | MIC ([5]; Addition of Serum: None) [µg/mL] | MIC [6, 16] [µg/mL] | MIC ([6]; Addition of Serum: None) [µg/mL] | MIC [7, 16] [µg/mL] | MIC ([7]; Addition of Serum: None) [µg/mL] | MIC [8, 16] [µg/mL] | MIC ([8]; Addition of Serum: None) [µg/mL] | MIC [9, 16] [µg/mL] | MIC ([9]; Addition of Serum: None) [µg/mL] | MIC [10, 16] [µg/mL] | MIC ([10]; Addition of Serum: None) [µg/mL] | SMILES | increase of antibacterial activity when 10% bovine serum is added to the culture medium [1] | antibacterial activity against Gram-positive bacteria including MRSA [1] | other results
1 | > 100 | > 100 | < 0.10 | 0.39 (≈ 0.252 µM) | > 100 | > 100 | < 0.10 | 0.39 (≈ 0.252 µM) | < 0.10 | 0.39 (≈ 0.252 µM) | < 0.10 | 0.39 (≈ 0.252 µM) | > 100 | > 100 | > 100 | > 100 | < 0.10 | 0.39 (≈ 0.252 µM) | CCCCCC1CC(=O)NC(CO)C(=O)NC(C(O)C(N)=O)C(=O)NC(CO)C(=O)NCC(=O)N(C)C(Cc2ccccc2)C(=O)NC(CC(C)C)C(=O)NC(CCCN)C(=O)NC(CCC(=O)O)C(=O)NC(CC(N)=O)C(=O)NC(Cc2c[nH]c3ccccc23)C(=O)NC(CCCN)C(=O)N(C)C(C(C)C)C(=O)O1 (stereo not shown) [WAP-8294A1] (S[ξAsn(3ξ-OH)]SG[NMeF]L[Orn]ENW[Orn][NMeV]; linker N-C via X1; configuration not given here) | not less than 8 times | strong antibacterial activity | MIC [11, 16]: < 0.10 µg/mL; MIC ([11]; Addition of Serum: None): 0.39 µg/mL (≈ 0.252 µM); MIC [12, 16]: 25 µg/mL (≈ 16.1 µM); MIC ([12]; Addition of Serum: None): 6.25 µg/mL (≈ 4.04 µM); Solubility [13]: soluble in water, methanol, n-butanol, dimethylformamide and dimethylsulfoxide and insoluble in acetone, ethyl acetate and chloroform
2 | > 100 | > 100 | < 0.10 | 0.78 (≈ 0.499 µM) | > 100 | > 100 | < 0.10 | 0.78 (≈ 0.499 µM) | < 0.10 | 0.78 (≈ 0.499 µM) | < 0.10 | 0.78 (≈ 0.499 µM) | > 100 | > 100 | > 100 | > 100 | < 0.10 | 0.78 (≈ 0.499 µM) | CC(C)CCCC1CC(=O)NC(CO)C(=O)NC(C(O)C(N)=O)C(=O)NC(CO)C(=O)NCC(=O)N(C)C(Cc2ccccc2)C(=O)NC(CC(C)C)C(=O)NC(CCCN)C(=O)NC(CCC(=O)O)C(=O)NC(CC(N)=O)C(=O)NC(Cc2c[nH]c3ccccc23)C(=O)NC(CCCN)C(=O)N(C)C(C(C)C)C(=O)O1 (stereo not shown) [WAP-8294A2] (S[ξAsn(3ξ-OH)]SG[NMeF]L[Orn]ENW[Orn][NMeV]; linker N-C via X2; configuration not given here) | not less than 8 times | strong antibacterial activity | MIC [11, 16]: < 0.10 µg/mL; MIC ([11]; Addition of Serum: None): 0.78 µg/mL (≈ 0.499 µM); MIC [12, 16]: 25 µg/mL (≈ 16 µM); MIC ([12]; Addition of Serum: None): 6.25 µg/mL (≈ 4 µM); Solubility [13]: soluble in water, methanol, n-butanol, dimethylformamide and dimethylsulfoxide and insoluble in acetone, ethyl acetate and chloroform
3 |  |  |  |  |  |  |  |  |  |  |  |  |  |  |  |  |  |  | CN[C@H](CC(C)C)C(=O)N[C@H]1C(=O)N[C@@H](CC(N)=O)C(=O)N[C@H]2C(=O)N[C@H]3C(=O)N[C@H](C(=O)N[C@H](C(=O)O)c4cc(O)cc(O)c4-c4cc3ccc4O)[C@H](O)c3ccc(c(Cl)c3)Oc3cc2cc(c3O[C@@H]2O[C@H](CO)[C@@H](O)[C@H](O)[C@H]2O[C@H]2C[C@](C)(N)[C@H](O)[C@H](C)O2)Oc2ccc(cc2Cl)[C@H]1O [Vancomycin] |  |  | Survival/No. of Test Animals [14]: 5/8; Survival/No. of Test Animals [15]: 5/8
